Data published in patent US10456381B2, “Compositions and methods for treating plasma cell disorders and B-cell prolymphocytic disorders” (Knopp Biosciences LLC, priority 2013, dated 2019).
Read-outs that look alike come from different tables or passages of the source.

What was measured:
eosinophils [1] = test system: eosinophils
Description: In a 39-week repeat-dose toxicology study, minipigs were dosed at 0, 7.5, 25, and 75 mg/kg dexpramipexole by daily oral gavage through Study Day 45 and at 0, 7.5, 25, and 50 mg/kg dexpramipexole from Study Day 46 to study completion.

eosinophils [2] = settings: for decline in mean serum eosinophils from baseline to week 12: 12 weeks, Part 1; for mean eosinophils at week 16 recovered to % of baseline levels: after one-month washout
Description: The Phase 2 trial was a two-part, double-blind study that evaluated the safety, tolerability, and clinical effects of dexpramipexole in ALS patients.
In Part 1, subjects were randomized to placebo (n=27), 50 mg/day (n=23), 150 mg/day (n=26), or 300 mg/day dexpramipexole (n=26) for 12 weeks.

eosinophils [3] = test system: eosinophils; remark: listed apart in the source
Description: (§1) The phase 3 clinical trial was a double-blind study of dexpramipexole in ALS patients randomized 1:1 to placebo or dexpramipexole 300 mg daily treatment. Hematology parameters were collected as part of routine safety monitoring. Eosinophil and basophil counts were retrospectively analyzed by visit.
Eosinophil levels were summarized over available time points and analyzed by ANOVA testing the effect of treatment vs. placebo on mean changes in serum eosinophil counts from baseline. Subjects with baseline eosinophils from 0 to 0.02×10^9/L (constituting less than 2% of all subjects analyzed) were censored from the primary analysis because of the inherent limitation to observe a decline from baseline.
Statistical analysis of the change from baseline was performed at month 6 to remove the effect of study dropouts in later months.

basophils = settings: 300 mg daily
Description: as §1
Changes in basophil counts were also analyzed in the Phase 3 trial.

[4] = test system: myeloid and lymphoid cell types, red blood cells, platelets; settings: 300 mg daily, month 6
Description: Hematological parameters were measured in a Phase 3 study of dexpramipexole in ALS. Because of the high rate of mortality among ALS patients, including subjects in the Phase 3 trial, hematology parameters obtained at the month 6 visit were chosen for analysis to remove the effect of study dropouts in later months.

bone marrow cells = settings: 30 mg/kg or 100 mg/kg daily gavage, 70 days, vs vehicle control
Description: The study consisted of 3 groups of BALB/cByJ mice (10 mice per group). Mice received daily gavage treatments of either 30 mg/kg, 100 mg/kg of dexpramipexole or vehicle control for 70 days. Bone marrow was processed into single cell suspensions and cells were stained with fluorescent conjugate antibodies to analyze the developmental stages of cells by flow cytometry. […] The columns depict the mean for each group and the error bar indicates the standard error of the mean.

[5] = exposures up to 18 months

CCCN[C@@H]1CCc2nc(N)sc2C1 [dexpramipexole, (6R)-2-amino-4,5,6,7-tetrahydro-6-(propylamino) benzothiazole]
safety assessment of eosinophil differences (eosinophils [1]; minipig, in vivo): not considered adverse | reduction in eosinophils (eosinophils [1]; minipigs, 7.5, 25 and 75/50 mg/kg daily oral gavage, 39 weeks): dose- and time-dependent reduction | decline in mean serum eosinophils from baseline to week 12 (eosinophils [2]; 50 mg/day): 18.2% | mean eosinophils at week 16 recovered to % of baseline levels (eosinophils [2]; 150 mg/day group): 47 % of baseline levels | decline in mean serum eosinophils from baseline to week 12 (eosinophils [2]; 150 mg/day): 69.9% | mean eosinophils at week 16 recovered to % of baseline levels (eosinophils [2]; 300 mg/day group): 73 % of baseline levels | decline in mean serum eosinophils from baseline to week 12 (eosinophils [2]; 300 mg/day): 42.9% | decrease in eosinophil counts (eosinophils [2]; ALS subjects receiving dexpramipexole, Phase 2): dose- and time-dependent decrease | decline in eosinophils from week 16 to week 40 (eosinophils [2]; Part 2, 25 mg twice daily): 17.6% | decline in eosinophils from week 16 to week 40 (eosinophils [2]; Part 2, 150 mg twice daily): 78.9% | eosinophil counts in one subject with hypereosinophilia at Part 2 baseline (eosinophils [2]; one Phase 2 subject, persisted through month 12): decrease in eosinophil counts | subjects experiencing a 50% or greater decline in eosinophil count (eosinophils [3]; 300 mg daily, after 6 months of treatment): 77.5 % of subjects | peripheral blood eosinophil count (eosinophils [3]; 300 mg daily, after 8-12 weeks of treatment): profound decrease | mean eosinophil counts reduced from baseline (eosinophils [3]; 300 mg daily, month 6): 68.4% | decrease in eosinophil count in subjects with higher eosinophil counts (>0.25×10^9/L) (eosinophils [3]; 300 mg daily, n=42, after 6 months of treatment): 75% | time at which eosinophil-lowering effect reached plateau (eosinophils [3]; 300 mg daily, persisted through month 12): ~4 month | eosinophil counts in subject with highest baseline eosinophil count (eosinophils [3]; one Phase 3 subject, persisted through month 12): decrease in eosinophil counts | time at which basophil count decline reached plateau (basophils; remained reduced through month 12): ~4 month | mean basophil counts reduced from baseline (basophils; six month analysis): 45.5% | all myeloid and lymphoid cell types measured, change from baseline [4]: statistically significant mean reductions | Siglec-F^lo IL5Rα^hi positive cells (developing B cells, basophils and other cell populations) in bone marrow (bone marrow cells): lowered | number of Scal^+ c-Kit^+ lineage negative cells (multipotent hematopoietic stem cells) in bone marrow (bone marrow cells): lowered | tolerability in humans [5]: well-tolerated
